ChEMBL document CHEMBL2074546, “Inhibition of P-glycoprotein by flavonoid derivatives in adriamycin-resistant human myelogenous leukemia (K562/ADM) cells” (Cancer Lett, 2002)

target: ATP-dependent translocase ABCB1 (Homo sapiens, UniProt P08183); assay: TP_TRANSPORTER: increase in Vincristine intracellular accumulation (0.025 uM) in K562/ADM cells; format: functional, cell-based; settings: k562/adr
Sequence (P08183 whole entry): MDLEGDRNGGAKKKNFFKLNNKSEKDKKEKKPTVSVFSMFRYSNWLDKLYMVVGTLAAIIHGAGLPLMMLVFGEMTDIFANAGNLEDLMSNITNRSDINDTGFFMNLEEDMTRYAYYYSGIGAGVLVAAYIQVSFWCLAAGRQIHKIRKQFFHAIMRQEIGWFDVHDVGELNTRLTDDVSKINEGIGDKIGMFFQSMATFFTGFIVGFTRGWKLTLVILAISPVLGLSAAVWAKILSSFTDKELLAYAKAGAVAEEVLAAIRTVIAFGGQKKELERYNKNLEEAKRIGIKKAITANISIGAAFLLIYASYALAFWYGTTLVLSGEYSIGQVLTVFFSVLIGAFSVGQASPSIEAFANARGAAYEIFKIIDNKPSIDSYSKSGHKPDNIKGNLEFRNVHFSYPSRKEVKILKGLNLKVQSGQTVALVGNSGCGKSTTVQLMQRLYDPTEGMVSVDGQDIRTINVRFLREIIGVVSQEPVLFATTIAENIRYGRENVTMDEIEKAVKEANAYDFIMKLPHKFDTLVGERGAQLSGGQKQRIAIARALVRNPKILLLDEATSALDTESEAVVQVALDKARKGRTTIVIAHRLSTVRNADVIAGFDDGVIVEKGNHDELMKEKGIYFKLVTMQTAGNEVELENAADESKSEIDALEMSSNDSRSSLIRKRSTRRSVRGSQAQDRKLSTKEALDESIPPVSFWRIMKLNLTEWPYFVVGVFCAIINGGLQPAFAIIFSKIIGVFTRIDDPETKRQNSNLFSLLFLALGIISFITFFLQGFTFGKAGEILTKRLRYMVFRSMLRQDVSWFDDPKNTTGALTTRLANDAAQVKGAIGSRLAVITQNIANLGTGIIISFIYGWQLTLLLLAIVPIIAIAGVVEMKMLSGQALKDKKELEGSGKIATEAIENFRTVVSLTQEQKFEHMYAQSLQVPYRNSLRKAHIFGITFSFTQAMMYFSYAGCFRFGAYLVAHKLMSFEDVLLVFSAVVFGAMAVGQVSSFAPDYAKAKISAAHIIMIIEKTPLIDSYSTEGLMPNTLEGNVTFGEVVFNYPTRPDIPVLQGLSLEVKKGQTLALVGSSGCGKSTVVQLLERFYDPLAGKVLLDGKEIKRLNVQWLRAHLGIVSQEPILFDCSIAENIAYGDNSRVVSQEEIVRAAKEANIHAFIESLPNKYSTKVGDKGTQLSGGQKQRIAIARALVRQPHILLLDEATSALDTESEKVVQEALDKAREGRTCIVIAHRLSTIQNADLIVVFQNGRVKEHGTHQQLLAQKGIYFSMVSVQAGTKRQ

Q: With `C=CCOc1ccc(-c2oc3cc(OCC=C)cc(O)c3c(=O)c2OCC=C)c(OCC=C)c1` [MORIN PENTAALLYL ETHER] as the compound, how does the Activity read?
A: Its Activity is “inhibitor [(at a rough estimate) 500 % of control]”.

Q: For `CCOc1ccc(-c2oc3cc(OCC)cc(O)c3c(=O)c2OCC)c(OCC)c1` [MORIN PENTAETHYL ETHER], which Activity is on record?
A: The Activity was “inhibitor [(at a rough estimate) 1430 % of control]”.

Q: For `COc1ccc(-c2oc3cc(OC)cc(O)c3c(=O)c2OC)c(OC)c1` [MORIN PENTAMETHYL ETHER], which Activity is on record?
A: The Activity was “inhibitor [(at a rough estimate) 470 % of control]”.

Q: How did the Activity turn out when `CCCOc1ccc(-c2oc3cc(OCCC)cc(O)c3c(=O)c2OCCC)c(OCCC)c1` [MORIN PENTAPROPYL ETHER] was run?
A: The Activity was “inhibitor [(at a rough estimate) 390 % of control]”.
